Consider one substance from US8119589B2, “Modulation of CD4+ T cell responses by a tick saliva protein, Salp15 and polypeptides derived therefrom” (University of North Carolina at Charlotte, priority 2004, dated 2012).

Test [1] deals with Jurkat clone E6-1. The test is described as follows: TCR ligation-induced tyrosine phosphorylation in stimulated Jurkat cells. The test is classed as cell-based, human. As for the experimental part:
Naïve CD4+ T cells from C3H/HeN, Balb/c, and B10.BR mice were purified as previously described (Anguita et al., 2002). CD4+ T cells were preincubated in Click's modified Bruff's Medium (Sigma Chemical Co., St. Louis, Mo., U.S.A.) for 10 minutes at 37° C. with and without Salp15 (50 μg/mL) and stimulated for 20 min or the indicated times at 37° C. with 10 μg/mL of anti-CD3ε, 1 μg/mL of anti-CD28, and 10 μg/mL of anti-armenian and syrian hamster IgG (BD Biosciences Pharmingen, San Jose, Calif., U.S.A.). Jurkat (E6-1) cells were stimulated using 5 μg/mL of OKT3 mAb (eBioscience, San Diego, Calif., U.S.A.) and 1 μg/mL of anti-human CD28 cross linked with 5 μg/mL anti-mouse IgG for the indicated times.
(§1) For the visualization of lipid rafts, phospho-tyrosine, and cytoskeleton reorganization, CD4^+, CD8^+ or Jurkat cells were cytospun for 10 minutes at 1000 RPM onto positively charged microslides (Fisher Scientific, Hampton, N.H., U.S.A.). The cells were fixed with 3.7% paraformaldehyde (Sigma Chemical Co.) for 15 minutes and stained with CTB594 (Molecular Probes, Eugene, Oreg., U.S.A.), AlexaFluor488 labeled phalloidin (Molecular Probes) or (1:50) biotin-conjugated anti-p-Tyr (PY99) followed by Streptavidin-AlexaFluor594 (1:100, Molecular Probes). […]

The test system of test [2] is CD4+ T cells. Briefly: Actin polymerization (phalloidin488 staining, F-actin immunoblot, flow cytometry) in activated CD4+ T cells. The class given is cell-based, mouse. To be noted: Salp15 pretreatment; effect seen as early as 1 minute of activation. On the procedure: as §1
Actin polymerization assay was performed as described earlier (Krishnan et al., 2004). […] The cells were washed, resuspended in PBS and analyzed for F-actin content on a FACSCalibur with CellQuest software (Beckton Dickinson, Mountain View, Calif., U.S.A.). […] The cells were washed twice with PBS and analyzed by flow cytometry.
The amount of F-actin in activated CD4+ T cells in the presence and absence of Salp15 was quantified by ultracentrifugation and Western blotting. […] Equal amounts of total protein were loaded on the SDS-gel based on the total actin determined from a sample of the cell lysate.
Background: In western blotting, separated proteins are transferred to a membrane and probed.

For test [3], the target named is T1, CD4 co-receptor (Homo sapiens, UniProt P01730).
T1 construct: 1-2×10^7 Jurkat, HeLa or HeLa-CD4 cells were lysed; endogenous in cells; host or cells: Jurkat
The test is described as follows: Co-immunoprecipitation with His-tagged Salp15 from Jurkat cell lysate. As to conditions: anti-His. The test is classed as binding. As for the experimental part:
For coimmunoprecipitation, 1-2×10^7 Jurkat, HeLa or HeLa-CD4 cells were lysed in 20 mM HEPES pH 7.4 containing 150 mM NaCl, 1% Triton-X 100, 0.25% sodium deoxycholate, 25 mM NaF, 2 mM Na3VO4, 1 mM PMSF and protease inhibitors for 15 min on ice. One mg of protein equivalent of the cell lysate was mixed with 50 μg/mL of 6× histidine-tagged-Salp15 or 6×His-tagged Salp13 fused to thioredoxin (29 kD) as a control protein, (Anguita et al., 2002, Das et al., 2001) and immunoprecipitated using an anti-poly-histidine antibody conjugated to agarose, anti-CD4, anti-CD3, anti-CD28 or normal rabbit IgG overnight at 4° C. The immunoprecipitate was run on SDS-PAGE followed by immunoblotting with anti-poly His-HRP, anti-CD4, anti-CD3, anti-CD28 or anti-TCRβ.

With “Salp15: secreted salivary protein from Ixodes scapularis, SEQ ID NO: 2; recombinant His-tagged, produced in Drosophila S2 cells”, in test [1] (Jurkat cells, anti-pTyr staining), the “Inhibitory effects on TCR ligation-induced tyrosine phosphorylation” value is listed as “also observed”. The “Inhibition of PLCγ1 phosphorylation” value in test [1] (Jurkat clone E6-1) was “also evident”. For the same substance, in test [2], the “Phalloidin488 staining / amount of F-actin” value was “reduced”. Besides, the “Co-immunoprecipitation of CD4” value in test [3] is on record as “co-immunoprecipitated”.
